Counter-ions that a name gives are not always drawn.
Target: CCR2 (Homo sapiens (Human), UniProt P41597)
Assay: MCP-1 Receptor Binding Assay in THP-1 Cells
Conditions: 0.5 nM 125I labeled MCP-1, 2 hours at 30° C., average of the two most similar values where more than one IC50, read-out: Inhibition of MCP-1 Binding IC50 CCR2 Binding
Method: Compounds of the invention were subjected to various representative biological tests. […] MCP-1 Receptor Binding Assay in THP-1 Cells Human monocytic cell line THP-1 cells were obtained from American Type Culture Collection (Manassas, Va., USA). The THP-1 cells were grown in RPMI-1640 (RPMI: Roswell Park Memorial Institute Medium-cell culture growth media) supplemented with 10% fetal bovine serum in a humidified 5% CO2 atmosphere at 37° C. The cell density was maintained between […].
THP-1 (cells were incubated with 0.5 nM ^125I labeled MCP-1 (Perkin-Elmer Life Sciences, Inc. Boston, Mass.) in the presence of varying concentrations of either unlabeled MCP-1 (R & D Systems, Minneapolis, Minn.) or test compound for 2 hours at 30° C. in a 96 well plate. Cells were then harvested onto a filter plate, dried, and 20 μL of Microscint 20 was added to each well. Plates were counted in a TopCount NXT, Microplate Scintillation & Luminescence Counter (Perkin-Elmer Life Sciences, Inc. Boston, Mass.). Blank values (buffer only) were subtracted from all values and drug treated values were compared to vehicle treated values. 1 μM cold MCP-1 was used for nonspecific binding.

CCR2, sequence (P41597 other isoform, or with tags, fused parts or gaps isoform P41597-2): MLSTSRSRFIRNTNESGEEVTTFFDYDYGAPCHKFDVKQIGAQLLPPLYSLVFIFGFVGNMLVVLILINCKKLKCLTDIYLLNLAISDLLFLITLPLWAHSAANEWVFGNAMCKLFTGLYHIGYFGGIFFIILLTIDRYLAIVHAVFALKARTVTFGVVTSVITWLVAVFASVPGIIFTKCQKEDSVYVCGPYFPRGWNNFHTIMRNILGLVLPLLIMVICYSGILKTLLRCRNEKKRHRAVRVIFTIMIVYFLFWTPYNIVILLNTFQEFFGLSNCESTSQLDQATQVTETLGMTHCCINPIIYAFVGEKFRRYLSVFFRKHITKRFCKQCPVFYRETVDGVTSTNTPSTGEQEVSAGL

| Structure (SMILES) | IC50 [nM] |
| --- | --- |
| NC(=O)C(NC1CCC(c2c[nH]c3ccccc23)CC1)C1CCN(C(=O)Nc2ccc(Cl)c(Cl)c2)CC1 (single isomer, unassigned) [Example 4a, 2-[4-(1H-Indol-3-yl)-cyclohexylamino]-2-[N-(3,4-dichlorophenyl)piperidine-1-carboxamid-4-yl]-acetamide] | 470 |
| NC(=O)C(NC1CCC(c2c[nH]c3cccnc23)CC1)C1CCN(C(=O)/C=C/c2cc(F)c(F)c(F)c2)CC1 (single isomer, unassigned) [Example 39a, 2-[4-(1H-pyrrolo[3,2-b]pyridin-3-yl)cyclohexyl]amino-2-[1-(trans-3,4,5-trifluorocinnamoyl)-piperidin-4-yl]-acetamide] | 25 |
| NC(=O)C(NC1CCC(c2c[nH]c3cccnc23)CC1)C1CCN(C(=O)/C=C/c2cc(F)c(F)c(F)c2)CC1 (single isomer, unassigned) [Example 39b, 2-[4-(1H-pyrrolo[3,2-b]pyridin-3-yl)cyclohexyl]amino-2-[1-(trans-3,4,5-trifluorocinnamoyl)-piperidin-4-yl]-acetamide] | 600 |
| NC(=O)C(NC1CCC(c2c[nH]c3ccncc23)CC1)C1CCN(C(=O)/C=C/c2ccc(F)cc2)CC1 (single isomer, unassigned) [Example 47b, 2-[4-(1H-pyrrolo[3,2-c]pyridin-3-yl)cyclohexyl]amino-2-[1-(trans-4-fluorocinnamoyl)-piperidin-4-yl]-acetamide] | 641 |
| NC(=O)C(NC1CCC(c2c[nH]c3ccccc23)CC1)C1CCN(C(=O)/C=C/c2ccc(F)cc2)CC1 (stereo not drawn) [Example 6, 2-[4-(1H-Indol-3-yl)-cyclohexylamino]-2-[1-(trans-4-fluorocinnamoyl)-piperidin-4-yl]-acetamide] | 19 |
| NC(=O)C(NC1CCC(c2c[nH]c3ccccc23)CC1)C1CCN(C(=O)Nc2ccc(C(F)(F)F)cc2)CC1 (stereo not shown) [Example 9, 2-[4-(1H-Indol-3-yl)-cyclohexylamino]-2-[N-(4-{trifluoromethyl}-phenyl)piperidine-1-carboxamid-4-yl]-acetamide] | 130 |
| NC(=O)C(NC1CCC(c2c[nH]c3ccccc23)CC1)C1CCN(C(=O)/C=C/c2cccc(C(F)(F)F)c2)CC1 (stereo not drawn) [Example 10, 2-[4-(1H-Indol-3-yl)-cyclohexylamino]-2-[1-(trans-3-{trifluoromethyl}-cinnamoyl)piperidin-4-yl]-acetamide] | 75 |
| NC(=O)C(NC1CCC(c2c[nH]c3ccccc23)CC1)C1CCN(C(=O)Nc2ccc(OC(F)(F)F)cc2)CC1 (stereo not shown) [Example 11, 2-[4-(1H-Indol-3-yl)-cyclohexylamino]-2-[N-(4-{trifluoromethoxy}-phenyl)piperidine-1-carboxamid-4-yl]-acetamide] | 264 |
| NC(=O)C(NC1CCC(c2c[nH]c3ccccc23)CC1)C1CCN(C(=O)/C=C/c2ccc3c(c2)CCC3)CC1 (stereo not drawn) [Example 12, 2-[4-(1H-Indol-3-yl)-cyclohexylamino]-2-[1-(trans-3-indan-5-ylprop-2-enoyl)piperidin-4-yl]-acetamide] | 120 |
| NC(=O)C(NC1CCC(c2c[nH]c3ccccc23)CC1)C1CCN(C(=O)/C=C/c2ccc(C(F)(F)F)cc2)CC1 (stereo not drawn) [Example 13, 2-[4-(1H-Indol-3-yl)-cyclohexylamino]-2-[1-(trans-4-{trifluoromethyl}-cinnamoyl)piperidin-4-yl]-acetamide] | 136 |
| NC(=O)C(NC1CCC(c2c[nH]c3ccccc23)CC1)C1CCN(C(=O)/C=C/c2ccc(Cl)cc2)CC1 (stereo not drawn) [Example 14, 2-[4-(1H-Indol-3-yl)-cyclohexylamino]-2-[1-(trans-4-chloro-cinnamoyl)piperidin-4-yl]-acetamide] | 130 |
| NC(=O)C(NC1CCC(c2c[nH]c3ccccc23)CC1)C1CCN(C(=O)/C=C/c2ccc3c(c2)CCO3)CC1 (stereo not drawn) [Example 15, 2-[4-(1H-Indol-3-yl)-cyclohexylamino]-2-[1-(trans-3-(2,3-dihydrobenzofuran-5-yl)prop-2-enoyl)piperidin-4-yl]-acetamide] | 149 |
| NC(=O)C(NC1CCC(c2c[nH]c3ccccc23)CC1)C1CCN(C(=O)/C=C/c2ccc3c(c2)OC(F)(F)O3)CC1 (stereo not drawn) [Example 17, 2-[4-(1H-Indol-3-yl)-cyclohexylamino]-2-[1-(trans-3-(2,2-difluoro-1,3-benzodioxol-5-yl)prop-2-enoyl)piperidin-4-yl]-acetamide] | 177 |
| NC(=O)C(NC1CCC(c2c[nH]c3ccccc23)CC1)C1CCN(C(=O)/C=C/c2ccccc2)CC1 (stereo not drawn) [Example 18, 2-[4-(1H-Indol-3-yl)-cyclohexylamino]-2-[1-(trans-cinnamoyl)piperidin-4-yl]-acetamide] | 190 |
| NC(=O)C(NC1CCC(c2c[nH]c3ccccc23)CC1)C1CCN(C(=O)Nc2cccc(F)c2)CC1 (stereo not shown) [Example 20, 2-[4-(1H-Indol-3-yl)-cyclohexylamino]-2-[N-(3-fluorophenyl)piperidine-1-carboxamid-4-yl]-acetamide] | 370 |
| NC(=O)C(NC1CCC(c2c[nH]c3ccccc23)CC1)C1CCN(C(=O)/C=C/c2ccc(OC(F)(F)F)cc2)CC1 (stereo not drawn) [Example 21, 2-[4-(1H-Indol-3-yl)-cyclohexylamino]-2-[1-(trans-4-(trifluoromethoxy)cinnamoyl)piperidin-4-yl]-acetamide] | 492 |
| CCOC(=O)c1ccc(NC(=O)N2CCC(C(NC3CCC(c4c[nH]c5ccccc45)CC3)C(N)=O)CC2)cc1 (stereo not shown) [Example 22, 2-[4-(1H-Indol-3-yl)-cyclohexylamino]-2-[N-(4-{ethoxycarbonyl}-phenyl)piperidine-1-carboxamid-4-yl]-acetamide] | 553 |
| O=C(O)C(N[C@H]1CC[C@H](c2c[nH]c3ccccc32)CC1)C1CCN(C(=O)/C=C/c2cc(F)cc(F)c2)CC1 (stereo partly drawn) [Example 25, 2-[4-(1H-Indol-3-yl)-trans-cyclohexylamino]-2-[1-(trans-3,5-difluorocinnamoyl)-piperidin-4-yl]-acetic acid hydrochloride] | 220 |

Continued by falling IC50, values first:

| IC50 [nM] | Structure (SMILES) |
| --- | --- |
| 602 | NC(=O)C(NC1CCC(c2c[nH]c3ccccc23)CC1)C1CCN(C(=O)/C=C/c2ccc3c(c2)OCCO3)CC1 (stereo not drawn) [Example 23, 2-[4-(1H-Indol-3-yl)-cyclohexylamino]-2-[1-(trans-3-[2,3-dihydro-1,4-benzodioxin-7-yl]prop-2-enoyl)piperidin-4-yl]-acetamide] |
| 405 | NC(=O)C(NC1CCC(c2c[nH]c3ccncc23)CC1)C1CCN(C(=O)/C=C/c2ccc(F)cc2)CC1 (single isomer, unassigned) [Example 47a, 2-[4-(1H-pyrrolo[3,2-c]pyridin-3-yl)cyclohexyl]amino-2-[1-(trans-4-fluorocinnamoyl)-piperidin-4-yl]-acetamide] |
| 390 | COC(=O)C(N[C@H]1CC[C@H](c2c[nH]c3ccccc32)CC1)C1CCN(C(=O)/C=C/c2cc(F)cc(F)c2)CC1 (stereo partly drawn) [Example 24, Methyl 2-[4-(1H-indol-3-yl)-trans-cyclohexylamino]-2-[1-(trans-3,5-difluorocinnamoyl)piperidin-4-yl]-acetate] |
| 270 | NC(=O)C(NC1CCC(c2c[nH]c3ccccc23)CC1)C1CCN(C(=O)/C=C/c2ccccc2F)CC1 (stereo not drawn) [Example 8, 2-[4-(1H-Indol-3-yl)-cyclohexylamino]-2-[1-(trans-2-fluorocinnamoyl)-piperidin-4-yl]-acetamide] |
| 150 | NC(=O)C(NC1CCC(c2c[nH]c3ccccc23)CC1)C1CCN(C(=O)Nc2cccc(C(F)(F)F)c2)CC1 (stereo not shown) [Example 16, 2-[4-(1H-Indol-3-yl)-cyclohexylamino]-2-[N-(3-{trifluoromethyl}-phenyl)piperidine-1-carboxamid-4-yl]-acetamide] |
| 58 | CCOC(=O)c1cccc(NC(=O)N2CCC(C(NC3CCC(c4c[nH]c5ccccc45)CC3)C(N)=O)CC2)c1 (stereo not shown) [Example 19, 2-[4-(1H-Indol-3-yl)-cyclohexylamino]-2-[N-(3-{ethoxycarbonyl}-phenyl)piperidine-1-carboxamid-4-yl]-acetamide] |
| 23 | NC(=O)C(NC1CCC(c2c[nH]c3ccccc23)CC1)C1CCN(C(=O)/C=C/c2cccc(F)c2)CC1 (stereo not drawn) [Example 7, 2-[4-(1H-Indol-3-yl)-cyclohexylamino]-2-[1-(trans-3-fluorocinnamoyl)-piperidin-4-yl]-acetamide] |
| 21 | NC(=O)C(NC1CCC(c2c[nH]c3ccccc23)CC1)C1CCN(C(=O)/C=C/c2ccc(F)c(F)c2)CC1 (stereo not drawn) [Example 5, 2-[4-(1H-Indol-3-yl)-cyclohexylamino]-2-[1-(trans-3,4-difluorocinnamoyl)-piperidin-4-yl]-acetamide] |
| 20 | O=C(O)C(N[C@H]1CC[C@H](c2c[nH]c3ccccc32)CC1)C1CCN(C(=O)/C=C/c2cc(F)c(F)c(F)c2)CC1 (stereo partly drawn) [Example 26, 2-[4-(1H-Indol-3-yl)-cyclohexylamino]-2-[1-(trans-3,4,5-trifluorocinnamoyl)-piperidin-4-yl]-acetic acid hydrochloride] |
| 8 | NC(=O)C(NC1CCC(c2c[nH]c3ccccc23)CC1)C1CCN(C(=O)Nc2ccc(Cl)c(Cl)c2)CC1 (single isomer, unassigned) [Example 4b, 2-[4-(1H-Indol-3-yl)-cyclohexylamino]-2-[N-(3,4-dichlorophenyl)piperidine-1-carboxamid-4-yl]-acetamide] |
